Assay results as given in patent US11384114B2, “Polymorphic forms of an oxysterol and methods of making them” (Warsaw Orthopedic, Inc., priority 2016, dated 2022).
Values joined by “and” are separate entries in the source; they are usually repeats but may differ in a detail not shown here. Equal entries are not always repeated.

Tests used:
Format in all cases: physicochemical
[1] = Crystal form stability on vacuum oven drying; settings: for Crystal Form (XRPD): solid after drying at 20, 35 or 50 C, solvent system differs per item
Experimental: 2.0 g anhydrous OXY133 was added to 10 mL isopropanol in a 100 mL polyblock reactor. The mixture was heated to 30° C. and then stirred at 30° C. for 45 minutes until the solids were dissolved completely. Acceptable heating temperatures ranged from 25° C. to 35° C. A polish filtration step can be added after dissolving the anhydrous OXY133. The mixture of anhydrous OXY133 and isopropanol was then cooled to 5° C. 20 mL of water was then added to the cooled mixture over 120 minutes at 5° C., resulting in the formation of a precipitate approximately one third of the way through the addition of water. The water addition can also be done in temperature ranges from about 0° C. to about 20° C. with no significant effect on the crystal structure. The resulting mixture of OXY133, isopropanol and water was then stirred at 5° C. for 18 hours. However, it is recommended that the resulting mixture could be mixed for at least 2 hours at 5° C. after the water addition was complete to ensure that all solids were precipitated from the solution. A white solid was collected by rapidly filtering the mixture and then washing the solid with 2.0 mL of an isopropanol:water mixture in a ratio of 1:2 v/v. The filtered and washed solids were then dried in a vacuum oven at 20° C. Acceptable temperatures for drying can range from about 20° C. to about 30° C.

[2] = Karl-Fisher (KF) water determination of isolated solid; settings: for KF (water content determined by Karl Fischer water determination method): OXY133 polymorph sample, processing point and temperature differ per item of Table 15; for KF (Wt %) water content: solid isolated from acetone/water slurry at 0-25° C.
Source text: Further, Table 15 below is a list of OXY133 polymorphs Forms A, B, C, D, E, F, G, H and I identified by a high performance liquid chromatography (HPLC) followed by charged aerosol detector (CAD) method. Table 15 also lists the starting products, the solvent system including solvent and anti-solvent, the temperature at which a polymorph was formed, the water content of the polymorph as determined by the Karl-Fisher (KF) method of water determination, and where available, the yield and purity of the resulting polymorph.

DSC/TGA water loss = assay: DSC/TGA water loss
Experimental: Differential scanning calorimetry (DSC) and thermo-gravimetric analysis (TGA) were also collected for some of the OXY133 polymorphs. The equipment utilized to collect the DSC/TGA data was a Mettler Toledo DSC 2 equipped with an aluminum 40 μL crimped pan with a pin hole and the ramp rate was 10° C./min. DSC/TGA thermograms identifying several OXY133 polymorphs are illustrated in FIGS. 20-25.

[3] = Stability of the crystal form on stirring in the acetone/water solvent system; settings: slurry stirred in acetone/water (Form C at about 20° C.; Form F at about 20° C. or about 5° C.)
[4] = isolated solid, lot 2891-28-1, prepared from anhydrous OXY133 in isopropanol/water at 5° C. (Example 6)

Row | SMILES | Crystal Form (XRPD) [1] | KF (water content determined by Karl Fischer water determination method) [2] [%] | KF (Wt %) water content [2] [Wt %] | stability of crystal form in acetone/water solvent system [3] | further results
1 | CCCCCC[C@](C)(O)[C@H]1CC[C@H]2[C@@H]3C[C@H](O)[C@H]4C[C@@H](O)CC[C@]4(C)[C@H]3CC[C@@]21C [Form 2891-8-3] | Form A | 3.25 | 3.25 |  | 
2 | CCCCCC[C@](C)(O)[C@H]1CC[C@H]2[C@@H]3C[C@H](O)[C@H]4C[C@@H](O)CC[C@]4(C)[C@H]3CC[C@@]21C.O [Form A, (3S,5S,6S,8R,9S,10R,13S,14S,17S)-17-((S)-2-hydroxyoctan-2-yl)-10,13-dimethylhexadecahydro-1H-cyclopenta[a]phenanthrene-3,6-diol, monohydrate] |  |  |  |  | crystal form change on drying ([1]; drying at temperatures above about 20° C. to about 30° C.): slow conversion of OXY133 monohydrate to a different, unknown crystal form; KF [2, 4]: 4.07%; DSC/TGA (DSC/TGA water loss; [4]): 4.76%; water loss (DSC/TGA) (DSC/TGA water loss; ramp rate 10° C./min, listed as OXY133 monohydrate, monohydrate): 4.57% and 4.00%
3 | CCCCCC[C@](C)(O)[C@H]1CC[C@H]2[C@@H]3C[C@H](O)[C@H]4C[C@@H](O)CC[C@]4(C)[C@H]3CC[C@@]21C [Form 2891-10-3] | Form A | 4.02 | 4.02 |  | 
4 | CCCCCC[C@](C)(O)[C@H]1CC[C@H]2[C@@H]3C[C@H](O)[C@H]4C[C@@H](O)CC[C@]4(C)[C@H]3CC[C@@]21C [Form C] |  |  |  | fairly stable | 
5 | CCCCCC[C@](C)(O)[C@H]1CC[C@H]2[C@@H]3C[C@H](O)[C@H]4C[C@@H](O)CC[C@]4(C)[C@H]3CC[C@@]21C [Form 2891-9-3] | Form A | 3.83 | 3.83 |  | 
6 | CCCCCC[C@](C)(O)[C@H]1CC[C@H]2[C@@H]3C[C@H](O)[C@H]4C[C@@H](O)CC[C@]4(C)[C@H]3CC[C@@]21C [Form F] |  |  |  | somewhat stable | 
